The text below walks through data of patent US20160120949A1, “USES OF IL-12 IN HEMATOPOIETIC IMMUNOTHERAPY (HIT)” (Neumedicines, Inc., priority 2014, published 2016).

Counter-ions that a name gives are not always drawn. Where only a bound is given, the exact number is not on record here.

In data set [1] the test system is Irradiated, Unsupported Rhesus Monkeys. Kind of data set: Radiomitigation study in myeloablated, lethally irradiated, unsupported nonhuman primates. The data set is classed as in vivo. As for the experimental part: FIG. 3: Kaplan-Meier Survival Curves of Irradiated, Unsupported Monkeys Treated with HemaMax™. Pooled HemaMax™ dosing group is shown. No antibiotics were used during the study. One animal with a broken tooth was excluded from the study because of an unrelated death to the study. p<0.05 pooled treatment groups.
FIGS. 4A-4B: Leukocyte (A) and Thrombocyte (B) Counts in Irradiated, Unsupported Rhesus Monkeys Treated With HemaMax™. Three analyses were conducted to assess differences in blood cell counts during the study period.
FIG. 4 describes […] Counts in Irradiated, Unsupported Rhesus Monkeys Treated With HemaMax™. Three analyses were conducted to assess differences in blood cell counts during the study period.

For the next data set, the system named is human immune cells. Put plainly: Pharmacodynamic response (IFN-γ) in human immune cells in vitro. The data set is classed as cell-based.
Data set [2] has as its system non-human primates (rhesus monkeys). Kind of data set: Pharmacodynamic response (IFN-γ) in non-human primates in vitro and in vivo. The following applies: both in vitro and in vivo.
For data set [3] the following is noted: cited from earlier work.
For data set [4] the following is noted: controlled room temperature 20° C. to 25° C.; cited from earlier work.
The conditions of data set [5]: cited from earlier work. This is another data set of the same source.
For data set [6] the following is noted: infusion time beyond 60 minutes; cited from earlier work.
A further data set relates to Lin-IL-12Rβ2-cells. Kind of data set: Megacult colony culture with and without IL-12. The following applies: megacult medium, 5000 cells/slide. The format is cell-based. The method, then:
FIG. 7: Lin-IL-12Rβ2-cells were plated in megacult medium at 5000 cells/slide with and without IL-12.
By way of example, FIG. 7 describes Lin-IL-12RB2-cells were plated in megacult medium at 5000 cells/slide with and without IL-12.

Data set [7] concerns neutrophils, red blood cells and platelets. Put plainly: Blood recovery after myelosuppressive radiation (625 rad), EL4 lymphoma tumor model. The data set is classed as in vivo, mice. The following applies: days 14-21. The source says:
(§1) FIGS. 1A-1B: Blood Recovery Profiles for Vehicle and rMuIL-12 Administered Before and After Myelosuppresive Radiation (625 rad). Blood cell recovery profiles are shown for the EL4 lymphoma tumor model (A) and the Lewis lung cancer model (B) for neutrophils, red blood cells and platelets. Pre-radiation blood values reflect an average of all animals in both groups before radiation and tumor inoculation. The normal threshold value for murine blood cell counts is indicated by the dashed line.
(§2) Platelet recovery profiles are shown for the EL4 lymphoma tumor model (a) and the Lewis lung cancer model (b).

Data set [8] shares this test system. Put plainly: Blood recovery after myelosuppressive radiation (625 rad), Lewis lung cancer model. The data set is classed as in vivo, mice. The following applies: days 14-21.
From the text: as §1, §2

A further data set deals with EL4 lymphoma tumor model. Kind of data set: Tumor volume after radiation (625 rad), EL4 lymphoma tumor model. The data set is classed as in vivo, mice. The following applies: 625 rad day 1 and second dose day 22, pre, post and pre-post radiation dosing groups, endpoint of tumor volume evaluation. The source says:
(§3) FIGS. 2A-2B: Relative Changes in Tumor Volumes for Vehicle and rMuIL-12 Treatment Groups Following Radiation (625 rad). Changes in tumor volumes over the course of the experiment are shown for the EL4 lymphoma tumor model (A) and the Lewis Lung cancer tumor model (B). Mice in both tumor models were given 625 rad on day 1. Mice in both tumor models were given a second dose of radiation on day 22 following the initial radiation dose.
(§4) FIG. 2 A-B describe Relative Changes in Tumor Volumes for Vehicle and rMuIL-12 Treatment Groups Following Radiation (625 rad). Changes in tumor volumes over the course of the experiment are shown for the EL4 lymphoma tumor model (a) and the Lewis Lung cancer tumor model (b). Mice in both tumor models were given 625 rad on day 1. Mice in both tumor models were given a second dose of radiation on day 22 following the initial radiation dose.

Data set [9] has as its system Lewis Lung cancer tumor model. Put plainly: Tumor volume after radiation (625 rad), Lewis Lung cancer tumor model. The data set is classed as in vivo, mice. The following applies: 625 rad day 1 and second dose day 22, rMuIL-12 post-treatment, endpoint of tumor growth evaluation.
From the text: as §3, §4

Another data set relates to femoral bone marrow. Kind of data set: Hematopoietic recovery in irradiated mice (TBI 8.0 Gy), femoral bone marrow IHC for IL-12Rβ2. The data set is classed as in vivo. The following applies: 20 ng/mouse subcutaneously post irradiation, 12 days after irradiation. As for the experimental part: FIGS. 6A-6F: Murine IL-12 Promotes Hematopoietic Recovery in Irradiated Mice. Representative sections of femoral bone marrow from non-irradiated, untreated mice that were stained for IL-12Rβ2 are shown in (A). Animals were subjected to TBI (8.0 Gy) and subsequently received vehicle or rMuIL-12 (20 ng/mouse) subcutaneously at the indicated times post irradiation (B-F). Femoral bone marrow was immunohistochemically stained for IL-12Rβ2 (orange color) 12 days after irradiation. […] Magnification=100×.
By way of example, FIG. 6 describes Murine IL-12 Promotes Hematopoietic Recovery in Irradiated Mice. Representative sections of femoral bone marrow from non-irradiated, untreated mice that were stained for IL-12Rβ2 (orange color) are shown in (a). Animals were subjected to TBI (8.0 Gy) and subsequently received vehicle or rMuIL-12 (20 ng/mouse) subcutaneously at the indicated times post irradiation (b-f). Femoral bone marrow was immunohistochemically stained for IL-12Rβ2 (orange color) 12 days after irradiation.

A further data set concerns platelets. Kind of data set: Chemotherapy induced thrombocytopenia (CIT) model, gemcitabine/carboplatin (GC) chemotherapy, platelet counts. The format is in vivo, mice. The following applies: for % platelet counts from baseline (average and standard deviation): day 8. As for the experimental part: The effect of rMuIL-12 administration in conjunction with gemcitabine/carboplatin chemotherapy (GC) (6.6 mg gemcitabine dose+2 mg carboplatin) was examined. Mice received GC intravenously on day 0.
Pre-dosing: rMuIL-12 was given 24 hours before chemotherapy treatment (n=18)
Post-dosing: rMuIL-12 was administered 48 hours after chemotherapy treatment (n=19) Pre/post dosing: rMuIL-12 was given 24 hours before chemotherapy and 48 hours after chemotherapy (n=13)
Averages of % platelet counts from baseline and standard deviations for each group at day 8 were: […]

Another data set concerns Lewis Lung tumor cells. Put plainly: Lewis Lung mouse tumor model with concomitant GC chemotherapy, tumor volume. The format is in vivo. The following applies: 20 ng subcutaneously before, after or before/after GC; differences not statistically significant. As for the experimental part: The effect of rMuIL-12 administration on tumor growth in a mouse tumor chemotherapy model was evaluated. The tumor model used Lewis Lung tumor cells that were subcutaneously injected (100,000 cells) in each mouse. At a given time after tumor inoculation, mice were treated with chemotherapy. The gemcitabine/carboplatin chemotherapy regimen as described above was used and administered IP. rMuIL-12 was administered subcutaneously (20 ng) before, after, or before/after chemotherapy as indicated below.
Pre-dosing (n=16): rMuIL-12 was given 24 hours before chemotherapy treatment,
Post-dosing (n=16): rMuIL-12 was administered 48 hours after chemotherapy treatment
Pre/post dosing (n=16): rMuIL-12 was given 24 hours before chemotherapy and 48 hours after chemotherapy. Control (n=16)
Tumor volume was monitored over time to compared tumor growth in the control compared to rMuIL-12 treated mice. […] The differences among groups in tumor growth were not statistically significant.

A further data set relates to Lewis Lung tumor. Put plainly: Lewis Lung tumor model with two rounds of gemcitabine monotherapy, tumor volume. The format is in vivo, mouse. The following applies: gemcitabine 6.6 mg IP twice, one week apart; differences not statistically significant. As for the experimental part:
The study evaluate the effect of rMuIL-12 on tumor growth in a mouse chemotherapy model was followed up with a second study to examine the growth in the same Lewis Lung model when gemcitabine was used as monotherapy and administered two times, one week apart. rMuIL-12 was also administered as pre-dosing and post-dosing, as described above, and also with a 24 hour post group and on the same day as chemotherapy administration. rMuIL-12 was administered at either both weeks of chemotherapy or only the first week. There were five groups with n=5 for each group. These groups are described below: Chemotherapy once weekly: Gemcitabine only, administered IP, 6.6 mg rMuIL-12 given weekly, three schedules: 24 hours pre-chemotherapy (Pre); Same day as chemotherapy (SD); 24 hours post chemotherapy (Post1=24 hrs-post; Post2=48 hrs-post).
By way of example, FIG. 10 describes Lewis Lung Tumor Volume of Mice Under Monotherapy With Gemcitabine Receiving rMuIL-12. Day 0 is the time of the first chemotherapy. The second chemotherapy administration took place at day 7. […] The differences in growth among groups were not statistically significant.

Setting [10] is: days 12 and 14, 100 ng/kg and 250 ng/kg doses.
[11] abbreviates: rMuIL-12 before and after 625 rad.

As for “HemaMax: recombinant human IL-12, heterodimeric glycoprotein of p35 and p40 subunits, 503 amino acids, produced in CHO cells”, in [1] (setting [10]), the “numbers of leukocytes as compared to vehicle” value was “significantly higher numbers” and the “numbers of thrombocytes as compared to vehicle” value is on record as “significantly higher numbers”. The “monkeys that required a platelet transfusion” value in data set [1] (lethal radiation NHP study, vehicle 80%) was 25%. Besides, in [1] (lethally irradiated NHP), the “platelet and WBC nadirs” value is “attenuates”. For the same molecule, in data set [1] (lethally irradiated NHP, no antibiotics, pooled dosing groups), the survival entry was “increases survival”. Also, the “pharmacodynamic response (interferon-γ [IFN-γ])” value in the data set with human immune cells is reported as “potently elicits”. The “pharmacodynamic response (interferon-γ [IFN-γ])” value in [2] is given as “potently elicits”.
`Nc1ccn([C@@H]2O[C@H](CO)[C@@H](O)C2(F)F)c(=O)n1` [Gemzar, 2′-deoy-2′,2′-difluorocytidine monohydrochloride (β-isomer)]: the “maximum concentration upon reconstitution (solubility considerations)” value in data set [3] (0.9% Sodium Chloride Injection) is recorded as 40 mg/mL. Also, in [3] (ethanol and polar organic solvents), the “solubility in ethanol and polar organic solvents” value is “practically insoluble in ethanol and polar organic”. Besides, the solubility in methanol entry in data set [3] (methanol) was “slightly soluble”. Moreover, the solubility in water result in [3] (water) is “soluble”. Moreover, in [4], the “stability of prepared solutions” value is 24 h. Further, the acute dermal irritation result in data set [5] (animal studies) is on record as “not been observed”. The “rabbits with drug-related systemic toxicities (death, hypoactivity, nasal discharge, shallow breathing) due to dermal absorption” value in [5] (rabbits, dermal) is “two of three”. In addition, the “toxicity on prolongation of infusion time beyond 60 minutes” value in data set [6] is “minutes has been shown to increase toxicity”.

B1: IL-12: heterodimeric cytokine comprising p40 and p35 subunits; species of the IL-12 used in the megacult culture not stated (protein, UniProt P29459 23-219; P29460 23-328, looked up)
Interleukin-12 subunit alpha: RNLPVATPDPGMFPCLHHSQNLLRAVSNMLQKARQTLEFYPCTSEEIDHEDITKDKTSTVEACLPLELTKNESCLNSRETSFITNGSCLASRKTSFMMALCLSSIYEDLKMYQVEFKTMNAKLLMDPKRQIFLDQNMLAVIDELMQALNFNSETVPQKSSLEEPDFYKTKIKLCILLHAFRIRAVTIDRVMSYLNAS
Interleukin-12 subunit beta: IWELKKDVYVVELDWYPDAPGEMVVLTCDTPEEDGITWTLDQSSEVLGSGKTLTIQVKEFGDAGQYTCHKGGEVLSHSLLLLHKKEDGIWSTDILKDQKEPKNKTFLRCEAKNYSGRFTCWWLTTISTDLTFSVKSSRGSSDPQGVTCGAATLSAERVRGDNKEYEYSVECQEDSACPAAEESLPIEVMVDAVHKLKYENYTSSFFIRDIIKPDPPKNLQLKPLKNSRQVEVSWEYPDTWSTPHSYFSLTFCVQVQGKSKREKKDRVFTDKTSATVICRKNASISVRAQDRYYSSSWSEWASVPCS
As for B1, the “colony size in comparison to media alone” value in the data set on Lin-IL-12Rβ2-cells is “larger colonies”.

B2: rMuIL-12: murine recombinant IL-12, the murine counterpart to HemaMax (protein, UniProt P43431 23-215; P43432 23-335, looked up)
Interleukin-12 subunit alpha: RVIPVSGPARCLSQSRNLLKTTDDMVKTAREKLKHYSCTAEDIDHEDITRDQTSTLKTCLPLELHKNESCLATRETSSTTRGSCLPPQKTSLMMTLCLGSIYEDLKMYQTEFQAINAALQNHNHQQIILDKGMLVAIDELMQSLNHNGETLRQKPPVGEADPYRVKMKLCILLHAFSTRVVTINRVMGYLSSA
Interleukin-12 subunit beta: MWELEKDVYVVEVDWTPDAPGETVNLTCDTPEEDDITWTSDQRHGVIGSGKTLTITVKEFLDAGQYTCHKGGETLSHSHLLLHKKENGIWSTEILKNFKNKTFLKCEAPNYSGRFTCSWLVQRNMDLKFNIKSSSSSPDSRAVTCGMASLSAEKVTLDQRDYEKYSVSCQEDVTCPTAEETLPIELALEARQQNKYENYSTSFFIRDIIKPDPPKNLQMKPLKNSQVEVSWEYPDSWSTPHSYFSLKFFVRIQRKKEKMKETEEGCNQKGAFLVEKTSTEVQCKGGNVCVQAQDRYYNSSCSKWACVPCRVRS
On to B2, for which the “platelet counts as compared to the vehicle control” value in [7] (625 rad) and in data set [8] (625 rad) was “statistically significant improvements” each time. For the same molecule, the “blood cell counts as compared to the vehicle control” value in data set [7] (setting [11]) and in data set [8] (setting [11]) was “statistically significant improvements” each time. Besides, the “tumor growth % T/C” value (in the data set with EL4 lymphoma tumor model; in data set [9]) was less than 50% in each case. For the same molecule, the “hematopoietic recovery in femoral bone marrow” value in the data set on femoral bone marrow is listed as “hematopoietic reconstitution”. In the data set with platelets (all rMuIL-12 treated groups), the “animals with a decrease in platelets of more than 33%” value was 0 out of 50. The “% platelet counts from baseline (average and standard deviation)” value was found to be 110±37% in the data set on platelets (Post-dosing: 48 hours after chemotherapy); 79±34% with platelets (Pre-dosing: 24 hours before chemotherapy); 111±33% in the data set on platelets (Pre/Post dosing: 24 hours before and 48 hours after chemotherapy). The “mice with platelet levels that dropped one-third of baseline level or more” value in the data set on platelets (rMuIL-12 prior to, after or both prior to and after chemotherapy, 8 days after chemotherapy) was 0%. In the data set on Lewis Lung tumor cells, the “tumor growth (tumor volume)” value is “did not increase tumor growth”. In the data set with Lewis Lung tumor, the “tumor growth rate (tumor volume)” value is given as “did not increase the tumor growth rate”.
